Experimental data: patent publication US11807625B2, “Capsid inhibitors for the prevention of HIV” (Gilead Sciences, Inc., priority 2019, dated 2023)
Like-named read-outs stand apart in the source and are kept apart here.

Experiment: PK of compound of Formula (Ia) after single subcutaneous dose of solution formulations in Wistar Han rats
Type: in vivo
Settings: male, Wistar Han, rat, plasma, mean ± SD, SC 50 mg/kg; for AUC(0-t) / Cmax: sc, 50 mg/kg
Experimental: Formulations containing the compound of Formula (Ia), or a pharmaceutically acceptable salt thereof, were prepared as solutions and optionally administered subcutaneously or intramuscularly to rats, rabbits, and/or dogs.
(§1) A solution of about 400 mg/mL of the compound of Formula (Ia) having 19.14 w/w % water, 40.66 w/w % PEG 300, 35.20 w/w % of a sodium salt of a compound of Formula (Ia), and 5.00% ethanol was prepared. The solution was administered subcutaneously to male Wistar Han rats at a dose level of about 50 mg/kg and dose volume of 0.125 mL/kg and the pharmacokinetic (PK) profile was determined.
as §1, with “500” for “400”, “16.64” for “19.14”, “35.36” for “40.66”, “43.00” for “35.20”, “0.1” for “0.125”
(§2) A solution of about 400 mg/mL of the compound of Formula (Ia) having 17.00 w/w % water, 36.40 w/w % PEG 300, 35.20 w/w % of a sodium salt of a compound of Formula (Ia), 5.00 w/w % ethanol, and 6.40 w/w % poloxamer 188 was prepared. The solution was administered subcutaneously to male beagle dogs at a dose level of about 12 mg/kg and male Wistar Han rats at a dose level of about 50 mg/kg. The pharmacokinetic profiles were determined, and the results for dogs are summarized in Table and Table, while the results for rats are summarized in Table and Table below.
as §2, with “500” for “400”, “14.06” for “17.00”, “30.12” for “36.40”
A solution of about 300 mg/mL of the compound of Formula (Ia) having 23.33 w/w % water, 48.99 w/w % PEG 300, 26.47 w/w % of a sodium salt of a compound of Formula (Ia), and 1.21 w/w % poloxamer 188 was prepared. The solution was administered subcutaneously to male beagle dogs at a dose level of about 6 mg/kg and male Wistar Han rats at a dose level of about 50 mg/kg. The pharmacokinetic profiles were determined, and the results for dogs are summarized in Table and Table, while the results for rats are summarized in Table and Table below.
as §2, with “18.80” for “17.00”, “40.25” for “36.40”, “34.38” for “35.20”, “1.57” for “6.40”
as §2, with “500” for “400”, “16.29” for “17.00”, “34.88” for “36.40”, “41.92” for “35.20”, “1.91” for “6.40”
A solution of about 400 mg/mL of the compound of Formula (Ia) having 20.90 w/w % water, 44.72 w/w % PEG 300, and 34.38 w/w % of a sodium salt of a compound of Formula (Ia) was prepared. […]

[1] = n = 5 rats, solution T, 400 mg/mL

## CC(C)(C#Cc1ccc(-c2ccc(Cl)c3c(NS(C)(=O)=O)nn(CC(F)(F)F)c23)c([C@H](Cc2cc(F)cc(F)c2)NC(=O)Cn2nc(C(F)(F)F)c3c2C(F)(F)[C@@H]2C[C@H]32)n1)S(C)(=O)=O [compound of Formula (Ia)]
N = 3 rats, solution R, 400 mg/mL, read-out: AUC0-1344h
  AUC(0-t): 402 ± 58 µM·h
N = 3 rats, solution R, 400 mg/mL, read-out: AUC0-1680h
  AUC(0-t): 504 ± 80 µM·h
N = 3 rats, solution R, 400 mg/mL, read-out: AUC0-2352h
  AUC(0-t): 649 ± 95 µM·h
N = 3 rats, solution R, 400 mg/mL, read-out: AUC0-3024h
  AUC(0-t): 752 ± 92 µM·h
N = 3 rats, solution R, 400 mg/mL, read-out: AUC0-3696h
  AUC(0-t): 825 ± 80 µM·h
N = 3 rats, solution R, 400 mg/mL, read-out: AUC0-4704h
  AUC(0-t): 915 ± 44 µM·h
N = 3 rats, solution R, 400 mg/mL, read-out: AUC0-5376h
  AUC(0-t): 958 ± 21 µM·h
N = 3 rats, solution R, 400 mg/mL, read-out: AUC0-6048h
  AUC(0-t): 988 ± 4 µM·h
N = 3 rats, solution R, 400 mg/mL, read-out: AUC0-7392h
  AUC(0-t): 1020 ± 18 µM·h
N = 3 rats, solution R, 400 mg/mL, read-out: AUC0-8064h
  AUC(0-t): 1030 ± 25 µM·h
N = 3 rats, solution S, 500 mg/mL
  Cmax: 328 ± 131 nM
N = 3 rats, solution S, 500 mg/mL, read-out: AUC0-24 h
  AUC(0-t): 2.47 ± 0.39 µM·h
N = 3 rats, solution S, 500 mg/mL, read-out: AUC0-168 h
  AUC(0-t): 19.7 ± 3.1 µM·h
N = 3 rats, solution S, 500 mg/mL, read-out: AUC0-336 h
  AUC(0-t): 44.2 ± 7.5 µM·h
N = 3 rats, solution S, 500 mg/mL, read-out: AUC0-672 h
  AUC(0-t): 133 ± 40 µM·h
N = 3 rats, solution S, 500 mg/mL, read-out: AUC0-1008 h
  AUC(0-t): 233 ± 79 µM·h
N = 3 rats, solution S, 500 mg/mL, read-out: AUC0-1344 h
  AUC(0-t): 334 ± 120 µM·h
N = 3 rats, solution S, 500 mg/mL, read-out: AUC0-1680 h
  AUC(0-t): 426 ± 148 µM·h
N = 3 rats, solution S, 500 mg/mL, read-out: AUC0-2352 h
  AUC(0-t): 554 ± 185 µM·h
N = 3 rats, solution S, 500 mg/mL, read-out: AUC0-3024 h
  AUC(0-t): 652 ± 203 µM·h
N = 3 rats, solution S, 500 mg/mL, read-out: AUC0-3696 h
  AUC(0-t): 722 ± 216 µM·h
N = 3 rats, solution S, 500 mg/mL, read-out: AUC0-4704 h
  AUC(0-t): 817 ± 224 µM·h
N = 3 rats, solution S, 500 mg/mL, read-out: AUC0-5376 h
  AUC(0-t): 861 ± 226 µM·h
N = 3 rats, solution S, 500 mg/mL, read-out: AUC0-6048 h
  AUC(0-t): 896 ± 220 µM·h
N = 3 rats, solution S, 500 mg/mL, read-out: AUC0-6720 h
  AUC(0-t): 923 ± 229 µM·h
N = 3 rats, solution S, 500 mg/mL, read-out: AUC0-7392 h
  AUC(0-t): 945 ± 229 µM·h
N = 3 rats, solution S, 500 mg/mL, read-out: AUC0-8064 h
  AUC(0-t): 964 ± 228 µM·h
N = 3 rats, solution V, 300 mg/mL, read-out: AUC0-24 h
  AUC(0-t): 3.66 ± 4.29 µM·h
N = 3 rats, solution V, 300 mg/mL, read-out: AUC0-168 h
  AUC(0-t): 24.5 ± 5.4 µM·h
N = 3 rats, solution V, 300 mg/mL, read-out: AUC0-336 h
  AUC(0-t): 50.1 ± 9.2 µM·h
N = 3 rats, solution V, 300 mg/mL, read-out: AUC0-672 h
  AUC(0-t): 137 ± 27 µM·h
N = 3 rats, solution V, 300 mg/mL, read-out: AUC0-1008 h
  AUC(0-t): 237 ± 52 µM·h
N = 3 rats, solution V, 300 mg/mL, read-out: AUC0-1344 h
  AUC(0-t): 331 ± 85 µM·h
N = 3 rats, solution V, 300 mg/mL, read-out: AUC0-1680 h
  AUC(0-t): 423 ± 96 µM·h
N = 3 rats, solution V, 300 mg/mL, read-out: AUC0-2352 h
  AUC(0-t): 554 ± 113 µM·h
N = 3 rats, solution V, 300 mg/mL, read-out: AUC0-3024 h
  AUC(0-t): 646 ± 121 µM·h
N = 3 rats, solution V, 300 mg/mL, read-out: AUC0-3696 h
  AUC(0-t): 700 ± 121 µM·h
N = 3 rats, solution V, 300 mg/mL, read-out: AUC0-4704 h
  AUC(0-t): 720 ± 120 µM·h
[1]
  Cmax: 450 ± 155 nM
  Tmax: 18.8 ± 17.5 days
N = 5 rats, solution T, 400 mg/mL, read-out: AUC0-24 h
  AUC(0-t): 5.49 ± 1.6 µM·h
N = 5 rats, solution T, 400 mg/mL, read-out: AUC0-168 h
  AUC(0-t): 40.6 ± 15.3 µM·h
N = 5 rats, solution T, 400 mg/mL, read-out: AUC0-336 h
  AUC(0-t): 76.4 ± 25.3 µM·h
N = 5 rats, solution T, 400 mg/mL, read-out: AUC0-672 h
  AUC(0-t): 173 ± 75.6 µM·h
N = 5 rats, solution T, 400 mg/mL, read-out: AUC0-1008 h
  AUC(0-t): 313 ± 157 µM·h
N = 5 rats, solution T, 400 mg/mL, read-out: AUC0-1344 h
  AUC(0-t): 394 ± 185 µM·h
N = 5 rats, solution T, 400 mg/mL, read-out: AUC0-1680 h
  AUC(0-t): 485 ± 195 µM·h
N = 5 rats, solution T, 400 mg/mL, read-out: AUC0-2352 h
  AUC(0-t): 581 ± 146 µM·h
N = 5 rats, solution T, 400 mg/mL, read-out: AUC0-3024 h
  AUC(0-t): 655 ± 112 µM·h
N = 5 rats, solution T, 400 mg/mL, read-out: AUC0-3696 h
  AUC(0-t): 679 ± 103 µM·h
N = 5 rats, solution T, 400 mg/mL, read-out: AUC0-4704 h
  AUC(0-t): 718 ± 88 µM·h
N = 5 rats, solution T, 400 mg/mL, read-out: AUC0-5376 h
  AUC(0-t): 745 ± 76 µM·h
N = 5 rats, solution T, 400 mg/mL, read-out: AUC0-6048 h
  AUC(0-t): 766 ± 66 µM·h
N = 5 rats, solution T, 400 mg/mL, read-out: AUC0-6720 h
  AUC(0-t): 783 ± 59 µM·h
N = 5 rats, solution U, 500 mg/mL
  Cmax: 362 ± 147 nM
N = 5 rats, solution U, 500 mg/mL, read-out: AUC0-24 h
  AUC(0-t): 3.74 ± 0.78 µM·h
N = 5 rats, solution U, 500 mg/mL, read-out: AUC0-168 h
  AUC(0-t): 29.8 ± 7.5 µM·h
N = 5 rats, solution U, 500 mg/mL, read-out: AUC0-336 h
  AUC(0-t): 63.2 ± 20.7 µM·h
N = 5 rats, solution U, 500 mg/mL, read-out: AUC0-672 h
  AUC(0-t): 159 ± 77 µM·h
N = 5 rats, solution U, 500 mg/mL, read-out: AUC0-1008 h
  AUC(0-t): 338 ± 141 µM·h
N = 5 rats, solution U, 500 mg/mL, read-out: AUC0-1344 h
  AUC(0-t): 409 ± 159 µM·h
N = 5 rats, solution U, 500 mg/mL, read-out: AUC0-1680 h
  AUC(0-t): 529 ± 194 µM·h
N = 5 rats, solution U, 500 mg/mL, read-out: AUC0-2352 h
  AUC(0-t): 610 ± 215 µM·h
N = 5 rats, solution U, 500 mg/mL, read-out: AUC0-3024 h
  AUC(0-t): 669 ± 233 µM·h
N = 5 rats, solution U, 500 mg/mL, read-out: AUC0-3696 h
  AUC(0-t): 692 ± 233 µM·h
N = 5 rats, solution U, 500 mg/mL, read-out: AUC0-4704 h
  AUC(0-t): 728 ± 249 µM·h
N = 5 rats, solution U, 500 mg/mL, read-out: AUC0-5376 h
  AUC(0-t): 756 ± 256 µM·h
N = 5 rats, solution U, 500 mg/mL, read-out: AUC0-6048 h
  AUC(0-t): 781 ± 261 µM·h
N = 5 rats, solution U, 500 mg/mL, read-out: AUC0-6720 h
  AUC(0-t): 802 ± 266 µM·h
N = 3 rats, solution R, 400 mg/mL, read-out: AUC0-6720n
  AUC: 1007 ± 8 µM·h
